Marks after values point to notes of the source that are not given here.
Tests used:
[1] = test system: human cervical carcinoma (HeLa) cells; assay: Photodynamic activity (phototoxicity) after light activation, Neutral Red uptake; format: cell-based; conditions: Homo sapiens, light or radiation study; HeLa; 12 h incubation; λ > 455 nm, 15.3 mW cm−2, 15 min, 13.7 J cm−2
Experimental: (§1) The human cervical carcinoma (HeLa) and human melanoma (SK-MEL-28) cell lines were purchased from the American Type Cell Culture Collection (ATCC; Manassas, VA, USA). Both cell lines were cultured in Dulbecco’s modified Eagle’s medium (DMEM) without phenol red (Lonza, Verviers, Belgium) and supplemented with 10% heat-inactivated fetal bovine serum (Sigma-Aldrich (Merck, Darmstadt, Germany), 1% penicillin/streptomycin solution (Lonza), 10 mM HEPES buffer (Lonza), and 4 mM ultraglutamine I (alanyl-L-glutamine; Lonza). The cell lines were cultured in 75 cm^2 tissue culture flasks (TPP, Trasadingen, Switzerland) and maintained in a CO2 incubator at 37 °C in a humidified atmosphere of 5% CO2 and subcultured every 3−4 days. For the cytotoxicity experiments (phototoxicity and dark toxicity), cells were seeded into 96-well plates (TPP) at a density of 7.5 × 10^3 (HeLa and SK-MEL-28) cells per well for 24 h.
(§2) Stock solutions of the investigated compounds were prepared in DMSO at a concentration of 0.5 mM (4b) or 1 mM (all other compounds) and were sterilized by filtration through 0.22 μm syringe MCE filters. The stock solutions were diluted by the above-mentioned cell culture medium to the required concentrations. The maximum DMSO concentration in the medium in the experiments was 1% (2% in case of cpd. 4b). Cytoxicity of DMSO at corresponding concentrations (without studied compounds) was assessed in all cytotoxicity experiments as well—no toxicity against SK-MEL-28 or HeLa cells was observed.
(§3) For the photodynamic activity assessment experiments (phototoxicity), both HeLa and SK-MEL-28 cells were incubated overnight (12 h) with the studied compounds. The cells were then carefully and swiftly washed twice with a prewarmed sterile phosphate-buffered saline, fresh cell culture medium was added, and cells were subsequently irradiated for 15 min using a 450 W ozone-free Xe lamp (Newport; intensity reduced to 400 W). The lamp was equipped with a long-pass filter (Newport 20CGA-455) and an 8-cm water filter to cut off undesirable wavelengths and heat radiation, respectively (λ > 455 nm, 15.3 mW cm^−2, 15 min, 13.7 J cm^−2). Cellular viability was measured after an additional 24 h by the above-mentioned NR uptake assay. At least four independent experiments, each in triplicate, were performed.
(§4) The concentrations of the studied compounds that induced a 50% decrease in cellular viability after treatment under the dark conditions (TC50, the median toxic concentration) or after the photodynamic treatment (EC50, the median effective concentration) were calculated using GraphPad Prism software (version 9.1.2; GraphPad Software, Inc., San Diego, CA, USA) for each independent experiment. The data are presented as the means ± standard deviations of these values.

[2] = test system: human melanoma (SK-MEL-28) cells; assay: as above; format: cell-based
Experimental: as §1, §2, §3, §4

SK-MEL-28 cells [3] = assay: Dark toxicity (without irradiation), Neutral Red uptake; format: cell-based, human; conditions: 24 h in the dark, compounds precipitated over listed values
Experimental: as §1, §2
To assess dark toxicities (inherent toxicities of the studied compounds without irradiation), SK-MEL-28 cells were treated with studied PSs for 24 h in the dark. Viability was evaluated after two washing steps using the Neutral Red (NR; Sigma-Aldrich (Merck, Darmstadt, Germany) uptake assay, based on the ability of the living cells to incorporate NR into their intact lysosomes (concentration of NR in cell culture medium was 30 μg/mL and incubation time with NR was 2 h). The absorbance of soluble NR in cell lysate was measured at λ = 540 nm using a Tecan Infinite 200 M plate reader (Tecan, Männedorf, Switzerland). The viability of each experimental group was expressed as the percentage of the untreated controls incubated under the same conditions (100%). After staining (before lysis), the cells were briefly investigated under the microscope to verify changes in cellular morphology and the presence of NR in lysosomes (orange-red spots in the cells). These observations were in agreement with NR measurements.
as §4

[4] = Absorption and fluorescence measurements (quantum yield, lifetime); format: physicochemical; conditions: MeOH
Experimental: The singlet oxygen quantum yields (ΦΔ) and the fluorescence quantum yields (ΦF) of tested samples in MeOH were determined using published comparative (relative) methods with rhodamin-G6 used as a reference for fluorescence (ΦF = 0.94 in EtOH [31]), and bengal rose as a reference for singlet oxygen determinations (ΦΔ = 0.76 in MeOH [32]). Singlet oxygen measurements were performed with 1,3-diphenylisobenzofuran as the chemical scavenger of singlet oxygen by monitoring its decomposition at 417 nm. The ΦF values were also determined by an absolute method using an integrating sphere in an FLS1000 fluorimeter (Edinburgh Instruments, Edinburgh, UK). Fluorescence lifetimes were measured on the same fluorimeter upon excitation by HPL510 laser (Edinburgh Instruments, λ = 506.1 nm).

[5] = Photobleaching in serum-containing cell culture medium; format: physicochemical; conditions: 10 µM, 1 h of irradiation, 500W halogen lamp
Experimental: The photobleaching experiments were performed in a serum-containing cell culture medium at a concentration of 10 µM. The samples were prepared by direct dilution from the 1 mM DMSO stock solution (0.5 mM in case of 4b). The quartz cuvette with the sample (2.5 mL) was irradiated by the 500W halogen lamp (Tip) from a distance of 60 cm at room temperature. The light was filtered through a 7 cm water filter to eliminate heat. The absorption spectra were collected every 10 min. The experiment was performed in triplicate.

SK-MEL-28 cells [6] = assay: RealTime-Glo Annexin V Apoptosis and Necrosis Assay (cell death determination); format: cell-based, human; conditions: TRAIL 400 ng/mL, paclitaxel 1 μM, digitonin 25 μg/mL
Source text: A RealTime-Glo™ Annexin V Apoptosis and Necrosis Assay (Promega, Madison, WI, USA) was utilized for the real-time assessment of cell death. This monitors phosphatidylserine exposure on the outer leaflet of the cytoplasmic membrane (increase in luminescence signal) together with binding of the membrane-impermeable probe to DNA (increase in fluorescence signal) that accompanies a loss of membrane integrity, typical for late stages of apoptosis (secondary necrosis) or necrotic type of cell death. According to the manufacturer, this assay uses Annexin V fusion proteins containing complementary subunits of luciferase (Annexin V-LgBiT and Annexin V-SmBiT). The luminescence signal is low until both subunits bind to phosphatidylserine, and in close vicinity form functional luciferase.
For this assay, SK-MEL-28 cells were seeded onto 96-well white clear-bottom plates (Corning, New York, NY, USA) in a 1:1 mixture of DMEM and CO2 independent medium (Gibco; supplemented with 10% FBS, 1% penicillin/streptomycin solution and 4 mM ultraglutamine I). The next day, the medium was replaced with a fresh CO2 independent medium, and cells were incubated overnight. The next day, studied PSs dissolved in a CO2 independent medium in concentrations corresponding to their EC85 were added as described above. […] After mixing, samples were placed into a plate reader with a temperature control (Tecan Spark, Männedorf, Switzerland) and measured each 15 min for 24 h—luminescence (200 ms integration time) and fluorescence (λexc = 485 nm; λemi = 530 nm, BPexc/emi = 20 nm; 10 flashes per well, 40 μs integration time).
Digitonin (25 μg/mL), TRAIL (400 ng/mL), and paclitaxel (1 μM) were used as positive controls for membrane-disturbing-agent induced necrosis, extrinsic-pathway-mediated apoptosis, and intrinsic-pathway-mediated apoptosis, respectively. Cell-free wells (no-cell controls) were used to subtract background luminescence and fluorescence for each time point. […]

HeLa cells [7] = test system: HeLa cells; set-up: method as in PMID 27682881; conditions: cited from earlier work; for EC50: HeLa, λ > 570 nm, 12.4 mW cm−2, 15 min, 11.2 J cm−2, read-out: EC50, photodynamic activity; for TC50/EC50, phototherapeutic index: on HeLa cells
HeLa cells [8] = test system: HeLa cells; set-up: method as in PMID 27682881; conditions: on HeLa cells; cited from earlier work
[9] = set-up: method as in doi:10.1016/0009-2614(96)00838-X; conditions: in EtOH; cited from earlier work
[10] = set-up: method as in PMID 10546544; conditions: in MeOH; cited from earlier work

## CC1=CC(C)=[N+]2C1=C(c1ccc(OCCCCCN3C(=O)c4ccccc4C3=O)cc1)c1c(C)cc(C)n1[B-]2(F)F [2a, 1,3,5,7-Tetramethyl-8-{4-[5-(phthalimidyl)pentyloxy]phenyl}-4,4-difluoro-4-bora-3a,4a-diaza-s-indacene]
[1]
  EC50: 3.6 ± 0.19 µM
[2]
  TC50/EC50, phototherapeutic index: >3.92
[2]; Homo sapiens, light or radiation study, 12 h incubation, λ > 455 nm, 15.3 mW cm−2, 15 min, 13.7 J cm−2
  EC50: 2550 ± 140 nM
SK-MEL-28 cells [3]
  TC50, dark toxicity: >10^b μM
[4]
  absorption maximum (λmax): 498 nm
  emission maximum (λF): 507 nm
[4]; at λmax
  extinction coefficient (log ε): 4.77
[4]; integrating sphere
  fluorescence quantum yield, absolute method (ΦF(absol)): 0.52
[4]; rhodamin-G6 as reference
  fluorescence quantum yield, relative method (ΦF(relat)): 0.49
[4]; λexc = 506.1 nm
  fluorescence lifetime (τF): 3.27 ns
[5]
  absorption remaining, of the original value, after irradiation (photobleaching): approximately 87%

## CC(=O)O[C@H]1C(=O)[C@@]2(C)[C@H]([C@H](OC(=O)c3ccccc3)[C@]3(O)C[C@H](OC(=O)[C@H](O)[C@@H](NC(=O)c4ccccc4)c4ccccc4)C(C)=C1C3(C)C)[C@]1(OC(C)=O)CO[C@@H]1C[C@@H]2O [paclitaxel]
SK-MEL-28 cells [6]
  delay between luminescence (Annexin V) and fluorescence (DNA probe) signal surge, positive controls: ~11.5 h

## CN(C)c1ccc2nc3ccc(=[N+](C)C)cc-3sc2c1 [Methylene blue]
HeLa cells [7]
  EC50: 5150 ± 1930 nM
  TC50/EC50, phototherapeutic index: 4.4 ^d
HeLa cells [8]
  TC50, dark toxicity: 22.7 ± 7.9 ^d μM

## C=CC1=C(C)c2cc3[nH]c(cc4nc(cc5[nH]c(cc1n2)c(C)c5CCC(=O)O)C(CCC(=O)O)=C4C)c(C)c3C=C [Pp IX, protoporphyrin IX]
HeLa cells [7]
  EC50: 800 ± 130 nM
  TC50/EC50, phototherapeutic index: >10 ^d
HeLa cells [8]
  TC50, dark toxicity: >10 ^b,d μM

## CCN=c1cc2oc3cc(NCC)c(C)cc3c(-c3ccccc3C(=O)OCC)c-2cc1C.Cl [rhodamin-G6]
[9]
  fluorescence quantum yield (ΦF) of reference: 0.94

## C[C@@H]1CC[C@@]2(OC1)O[C@H]1[C@@H](O)[C@H]3[C@@H]4CC[C@H]5C[C@@H](O[C@@H]6O[C@H](CO)[C@H](O[C@@H]7O[C@H](CO)[C@@H](O)[C@H](O[C@@H]8OC[C@@H](O)[C@H](O)[C@H]8O)[C@H]7O[C@@H]7O[C@H](CO)[C@H](O)[C@H](O[C@@H]8O[C@H](CO)[C@@H](O)[C@H](O)[C@H]8O)[C@H]7O)[C@H](O)[C@H]6O)[C@H](O)C[C@]5(C)[C@H]4CC[C@]3(C)[C@H]1[C@@H]2C [digitonin]
SK-MEL-28 cells [6]
  delay between luminescence (Annexin V) and fluorescence (DNA probe) signal surge, positive controls: simultaneous and immediate rise in luminescence and fluorescence

## O=C(O)c1c(Cl)c(Cl)c(Cl)c(Cl)c1-c1c2cc(I)c(=O)c(I)c-2oc2c(I)c(O)c(I)cc12 [bengal rose]
[10]
  singlet oxygen quantum yield (ΦΔ) of reference: 0.76

## Oc1cccc(-c2c3nc(c(-c4cccc(O)c4)c4ccc([nH]4)c(-c4cccc(O)c4)c4nc(c(-c5cccc(O)c5)c5ccc2[nH]5)CC4)C=C3)c1 [temoporfin]
HeLa cells [7]
  EC50: 45 ± 7 nM
  TC50/EC50, phototherapeutic index: 460 ^d
HeLa cells [8]
  TC50, dark toxicity: 20.6 ± 2.5 ^d μM

B1: TRAIL: inducer of extrinsic-pathway apoptosis, positive control (protein, UniProt P50591 1-281, looked up)
Tumor necrosis factor ligand …: MAMMEVQGGPSLGQTCVLIVIFTVLLQSLCVAVTYVYFTNELKQMQDKYSKSGIACFLKEDDSYWDPNDEESMNSPCWQVKWQLRQLVRKMILRTSEETISTVQEKQQNISPLVRERGPQRVAAHITGTRGRSNTLSSPNSKNEKALGRKINSWESSRSGHSFLSNLHLRNGELVIHEKGFYYIYSQTYFRFQEEIKENTKNDKQMVQYIYKYTSYPDPILLMKSARNSCWSKDAEYGLYSIYQGGIFELKENDRIFVSVTNEHLIDMDHEASFFGAFLVG
SK-MEL-28 cells [6]
  delay between luminescence (Annexin V) and fluorescence (DNA probe) signal surge, positive controls: approximately 3.5 h

From article PMC8305389, “Tuning Photodynamic Properties of BODIPY Dyes, Porphyrins’ Little Sisters” (Molecules, 2021)
